Source: patent US10632169B2, “Methods of using GM604 in modulating ALS disease biomarkers leading to prognosis and therapeutic treatment for ALS disease” (Genervon Biopharmaceuticals, LLC, priority 2015, dated 2020)
Residues, ends and D or L forms follow the SMILES beside them.

What was measured:
[1] = GALS-001 Phase 2A trial, safety and tolerability; type: in vivo, human
Experimental: A total of twelve patients were enrolled in the ALS Phase 2A study. Six subjects enrolled at Site 1 and six subjects enrolled at Site 2. Dosing was by slow bolus intravenous administration, once a day for 3 times a week for 2 weeks. Eight patients were randomized to receive 320 mg GM604 per dose and four patients to receive placebo. Our inclusion/exclusion criteria required the ALS patients in the Phase 2A trial to be “definite” ALS sufferers according to El Escorial criteria (i.e., the disease progression must involve upper and lower motoneuron and the bulbar region) who had experienced disease onset within 24 months prior to the beginning of the trial. The goal is to enroll fast progressing patients. Our dosing regimen was delivered via intravenous bolus dosing three times a week (Monday, Wednesday, Friday) for two consecutive weeks, for a total of 6 doses. There was no dosing after the two weeks' treatment, and the patients were followed and evaluated for the next ten weeks. The clinical data for the ALSFRS-R, FVC, TUG, and the Grip Strength and HHD were measured at Baseline, Week 2, Week 6, and Week 12.
1. Safety and tolerability were evaluated based on the results of adverse events, vital signs, electrocardiography (ECG) measurements, physical and neurological examinations, safety laboratory monitoring, and hypersensitivity and injection site reactions.

[2] = GALS-C compassionate use, clinical observations; type: in vivo, human; conditions: during the GALS-C trial
Excerpt: GALS Compassionate Use (GALS-C) A ALS patient was first diagnosed with the disease in Q1 2005 and by Q3 2008 was quadriplegic and on a ventilator. The FDA approved a compassionate-use application of the MNTF6mer known as GM604 for this patient (IND #120052) using a protocol that followed the Phase 2A trial. This program was thus dubbed GALS-C. GALS-C Study Design
8. Exploratory clinical outcome measures will include the rate of decline of the ALS Functional Rating Scale Revised (ALSFRS-R), Forced Vital Capacity (FVC), stabilization or improvement in any clonus or spasticity symptoms, speech, swallowing, drooling, lingual/oral muscle, improved time off vent (self-breathing) and any movement or increase movement of any muscle groups. To estimate the participant's rate of progression prior to treatment, an ALSFRS-R of 48 will be assumed at date of symptom onset. There will be 2 weeks of active treatment, followed by 10 weeks of assessment without active treatment.
This compassionate trial follows the similar protocol and same dosing regimen as in the Phase 2A ALS trial. […]
Since the compassionate patient was very advanced, the usual clinical evaluations such as ALS functional rating scale (ALSFRS), forced vital capacity (FVC), and muscle strength were not used. […] The initial CSF before dosing and the CSF sample after the 6th dose were collected and analyzed. […]

[3] = shown in U.S. Pat. No. 8,673,852; cited from earlier work
[4] = system: anterior horn motor neurons isolated from rat lumbar spinal cord explants; conditions: naturally occurring and recombinant MNTF1; U.S. Pat. No. 6,309,877; cited from earlier work
[5] = system: surviving motor neurons; conditions: in vivo administration; blocked by anti-MNTF1 monoclonal antibody; cited from earlier work

Compound	Headache, GM604-treated patients ([1]; 2 patients of 8) [%]	Puncture site pain, GM604-treated patients ([1]; 3 patients of 8) [%]	Falls, GM604-treated patients ([1]; 4 patients of 8) [%]	Patients with at least 1 Treatment-emergent adverse event (TEAE) ([1]; GM604 treatment group, placebo 4 out of 4)	Grade 1 hypersensitivity reactions ([1]; Visit 5, placebo 1 patient) [patient]	Clinical laboratory tests, hematology, urinalysis, ECGs, vital signs, physical and neurological findings vs placebo ([1]; changes over time)	QT or QTcB result ([1]; no GM604 patient above this value) [ms]	Rash, GM604-treated patients ([1]; of 8) [patients]	Serious adverse events (SAE) ([1]; patient 0203, shortness of breath, judged unrelated to the investigational product)	Deaths or withdrawals due to adverse events ([1]; whole study)	Adverse side effects [2]	Blood brain barrier penetration [3]	Survival in vitro of anterior horn motor neurons [4]	Percentage of surviving motor neurons vs untreated controls [5]
C[C@H](NC(=O)[C@H](Cc1ccc(O)cc1)NC(=O)[C@H](CCCNC(=N)N)NC(=O)[C@H](CO)NC(=O)[C@@H](N)Cc1ccccc1)C(=O)N[C@@H](CCCNC(=N)N)C(=O)O [GM604, FSRYAR] (H-FSRYAR-OH)	25	37.5	50	5 out of 8	1	no clinically meaningful differences	≤ 450	2	1	No deaths or withdrawals due to adverse events occurred	no adverse side effects were noted	able to penetrate the blood brain barrier		
MNTF1: motoneuronotrophic factor isolated from rat muscle tissues; recombinant MNTF1-F6 encodes a 33 amino acid sequence (SEQ ID NO:1) (LGTFWGDTLNCWMLSAFSRYARCLAEGHDGPTQ)													selectively enhance the survival	markedly higher percentage of surviving motor neurons
